These results are taken from patent US10961192B2, “(R)-4-hydroxy-2-oxo-1-pyrrolidineacetamide crystal form, preparation method therefor, and application thereof” (CHONGQING RUZER PHARMACEUTICAL COMPANY LIMITED, priority 2017, dated 2021).

Each structure is given as a SMILES string. Some results are limits rather than exact numbers.

Format in all cases: physicochemical
Series [1] is described as follows: Stability test under high temperature conditions (60° C., 5 days), related substance. Particulars: for changes of the related substances in 5 days: high temperature of 60° C.; for Day 0: Related substance / Day 5: Related substance / Related material changes: 60° C.; for Day 0: Related substance: day 0, average of 5 groups; for Day 5: Related substance: day 5, average of 5 groups; for Related material changes: day 5 versus day 0. On the procedure: Stability test of the crystalline form I of (R)-4-hydroxy-2-oxo-1-pyrrolidineacetamideunder high temperature conditions. The crystalline form I of (R)-4-hydroxy-2-oxo-1-pyrrolidinylacetamide prepared in Examples 1 and 3-7 was placed in a flat weighing bottle and spread into thin layers of <5 mm thick, sealed in a clean container respectively and placed at 60° C. for 5 days; samples were taken and detected on day 0 and day 5, respectively.

A short description of a further series: Solubility in water.
Series [2] is described as follows: Angle of repose by injection method (fixed funnel method). The note with it: average of 5 groups. On the procedure:
(§1) In this test, the angle of repose of the crystalline form I of (R)-4-hydroxy-2-oxo-1-pyrrolidineacetamide prepared by the methods of Examples 1 and 3-7 was measured by an injection method (fixed funnel method). The samples to be tested were poured into the funnel, and they were gently and evenly dropped into the center of the disc to form a cone, when the materials fell freely from the oblique edge of the powder along the edge of the disc, the feedings were stopped, and the angles of repose were determined by the protractor; the sample traits and the clarity of the solution were examined, each example was tested for 5 groups and the average was obtained, the results are as follows: […]

A short description of the next series: Clarity of solution. The note with it: average of 5 groups. Here is the method:
as §1

One may read the solubility as the concentration that dissolves in the medium under given conditions. Turning to `NC(=O)CN1C[C@H](O)CC1=O` [(R)-4-hydroxy-2-oxo-1-pyrrolidineacetamide], the “changes of the related substances in 5 days” value is “less than 0.15%” in series [1] and “tiny” in series [1] (listed as crystalline form of (R)-4-hydroxy-2-oxo-1-pyrrolidineacetamide). Besides, the solubility in “Solubility in water” was at least 100 mg/mL.
Compound `NC(=O)CN1C[C@H](O)CC1=O` [Example 1, (R)-4-hydroxy-2-oxo-1-pyrrolidineacetamide] displayed an angle of repose in series [2] of 28 °. For the same compound, the clarity of solution entry in “Clarity of solution” is recorded as “clarification”. In series [1], the “Day 0: Related substance” value was found to be 0.23%, the “Day 5: Related substance” value turned out to be 0.35% and the Related material changes was 0.12%.
In series [2], `NC(=O)CN1C[C@H](O)CC1=O` [Example 3, (R)-4-hydroxy-2-oxo-1-pyrrolidineacetamide] gave an angle of repose of 28.3 °. Besides, in the series “Clarity of solution”, the clarity of solution entry is listed as “clarification”. For the same compound, in series [1], the “Day 0: Related substance” value amounted to 0.22%, the “Day 5: Related substance” value is recorded as 0.36% and the Related material changes is 0.14%.
On to `NC(=O)CN1C[C@H](O)CC1=O` [Example 4, (R)-4-hydroxy-2-oxo-1-pyrrolidineacetamide], for which the angle of repose in series [2] came to 28.5 °. Further, the clarity of solution result in “Clarity of solution” is on record as “clarification”. In addition, in series [1], the “Day 0: Related substance” value came out at 0.26%, the “Day 5: Related substance” value is recorded as 0.39% and the Related material changes is reported as 0.13%.
On to `NC(=O)CN1C[C@H](O)CC1=O` [Example 5, (R)-4-hydroxy-2-oxo-1-pyrrolidineacetamide], for which, in series [2], the angle of repose worked out at 27.8 °. Further, the clarity of solution result in “Clarity of solution” is recorded as “clarification”. In series [1], the “Day 0: Related substance” value was found to be 0.25%, the “Day 5: Related substance” value is reported as 0.37% and the Related material changes came out at 0.12%.
As to `NC(=O)CN1C[C@H](O)CC1=O` [Example 6, (R)-4-hydroxy-2-oxo-1-pyrrolidineacetamide], the angle of repose in series [2] was determined as 27.8 °. Besides, the clarity of solution result in “Clarity of solution” is “clarification”. In series [1], the “Day 0: Related substance” value came to 0.26%, the “Day 5: Related substance” value turned out to be 0.37% and the Related material changes was found to be 0.11%.
For `NC(=O)CN1C[C@H](O)CC1=O` [Example 7, (R)-4-hydroxy-2-oxo-1-pyrrolidineacetamide], in that order: 28 °, “clarification”, 0.22%, 0.33% and 0.11%.
